Here are results for four compounds from patent US20250115576A1, “THERAPEUTIC COMPOUNDS AND METHODS OF USE THEREOF” (Genentech, Inc., priority 2018, published 2025).

The target of assay [1] is T1, hNav1.7 (Homo sapiens (Human), UniProt Q15858). The experiment in a line: Tritiated compound binding to membranes from cells expressing hNav1.7 and the β1 subunit (Nav1.7 LBA). Conditions: competitive binding vs [3H]compound, membranes with hNav1.7 and β1 subunit; read-out: Nav1.7 LBA EVO IC50. As to the method:
Example 64a. Tritiated Compound Binding to Membranes Isolated from Cells that Heterologously Express hNav1.7 and the β 1 Subunit
Preparation of membranes containing recombinantly expressed sodium channels: Frozen recombinant cell pellets are thawed on ice and diluted to 4 times the cell pellet weight with ice cold 50 mM Tris HCl, pH 7.4 buffer. The cell suspensions are homogenized on ice using a motorized glass dounce homogeniser. Homogenates are further diluted 8.4 times with ice cold 50 mM Tris HCl, pH 7.4 buffer and then centrifuged at 200×g at 4° C. for 15 minutes. The supernatants are collected and centrifuged at 10000×g at 4° C. for 50 min. The pellets are then re-suspended in 100 mM NaCl, 20 mM Tris HCl, pH 7.4 buffer containing 1% v/v protease inhibitors (Calbiochem) and re-homogenized on ice. The homogenized membranes are then processed through a syringe equipped with a 26 gauge needle. Protein concentrations arer determined by Bradford Assay and the membranes are stored at −80° C.
Radioligand Binding Studies: Saturation experiments. A competitive NaV1.7 inhibitor having a methyl group is tritiated. Three tritiums are incorporated in place of methyl hydrogens to generate [^3H]compound. Binding of this radioligand is performed in 5 mL borosilicate glass test tubes at room temperature. Binding is initiated by adding membranes to increasing concentrations of [^3H]compound in 100 mM NaCl, 20 mM Tris HCl, pH 7.4 buffer containing 0.01% w/v bovine serum albumin (BSA) for 18 h. Non-specific binding is determined in the presence of 1 μM unlabeled compound. After 18 h, the reactants are filtered through GF/C glass fiber filters presoaked in 0.5% w/v polyethylene imine. […] [^3H]compound bound to filters is quantified by liquid scintillation counting.
Competitive binding experiments: Binding reactions are performed in 96-well polypropylene plates at room temperature for 18 h. […] Bound radioactivity is determined by liquid scintillation counting.
Data Analysis: For saturation experiments, non-specific binding is subtracted from total binding to provide specific binding and these values are recalculated in terms of pmol ligand bound per mg protein. Saturation curves are constructed and dissociation constants are calculated using the single site ligand binding model: Beq=(Bmax*X)/(X+Kd), where Beq is the amount of ligand bound at equilibrium, Bmax is the maximum receptor density, Kd is the dissociation constant for the ligand, and X is the free ligand concentration. For competition studies percent inhibition is determined and IC50 values are calculated using a 4 parameter logistic model (% inhibition=(A+((B−A)/(1+((x/C)^D)))) using XLfit, where A and B are the maximal and minimum inhibition respectively, C is the IC50 concentration and D is the (Hill) slope. […]
Target sequence in this assay (Q15858 whole entry, looked up): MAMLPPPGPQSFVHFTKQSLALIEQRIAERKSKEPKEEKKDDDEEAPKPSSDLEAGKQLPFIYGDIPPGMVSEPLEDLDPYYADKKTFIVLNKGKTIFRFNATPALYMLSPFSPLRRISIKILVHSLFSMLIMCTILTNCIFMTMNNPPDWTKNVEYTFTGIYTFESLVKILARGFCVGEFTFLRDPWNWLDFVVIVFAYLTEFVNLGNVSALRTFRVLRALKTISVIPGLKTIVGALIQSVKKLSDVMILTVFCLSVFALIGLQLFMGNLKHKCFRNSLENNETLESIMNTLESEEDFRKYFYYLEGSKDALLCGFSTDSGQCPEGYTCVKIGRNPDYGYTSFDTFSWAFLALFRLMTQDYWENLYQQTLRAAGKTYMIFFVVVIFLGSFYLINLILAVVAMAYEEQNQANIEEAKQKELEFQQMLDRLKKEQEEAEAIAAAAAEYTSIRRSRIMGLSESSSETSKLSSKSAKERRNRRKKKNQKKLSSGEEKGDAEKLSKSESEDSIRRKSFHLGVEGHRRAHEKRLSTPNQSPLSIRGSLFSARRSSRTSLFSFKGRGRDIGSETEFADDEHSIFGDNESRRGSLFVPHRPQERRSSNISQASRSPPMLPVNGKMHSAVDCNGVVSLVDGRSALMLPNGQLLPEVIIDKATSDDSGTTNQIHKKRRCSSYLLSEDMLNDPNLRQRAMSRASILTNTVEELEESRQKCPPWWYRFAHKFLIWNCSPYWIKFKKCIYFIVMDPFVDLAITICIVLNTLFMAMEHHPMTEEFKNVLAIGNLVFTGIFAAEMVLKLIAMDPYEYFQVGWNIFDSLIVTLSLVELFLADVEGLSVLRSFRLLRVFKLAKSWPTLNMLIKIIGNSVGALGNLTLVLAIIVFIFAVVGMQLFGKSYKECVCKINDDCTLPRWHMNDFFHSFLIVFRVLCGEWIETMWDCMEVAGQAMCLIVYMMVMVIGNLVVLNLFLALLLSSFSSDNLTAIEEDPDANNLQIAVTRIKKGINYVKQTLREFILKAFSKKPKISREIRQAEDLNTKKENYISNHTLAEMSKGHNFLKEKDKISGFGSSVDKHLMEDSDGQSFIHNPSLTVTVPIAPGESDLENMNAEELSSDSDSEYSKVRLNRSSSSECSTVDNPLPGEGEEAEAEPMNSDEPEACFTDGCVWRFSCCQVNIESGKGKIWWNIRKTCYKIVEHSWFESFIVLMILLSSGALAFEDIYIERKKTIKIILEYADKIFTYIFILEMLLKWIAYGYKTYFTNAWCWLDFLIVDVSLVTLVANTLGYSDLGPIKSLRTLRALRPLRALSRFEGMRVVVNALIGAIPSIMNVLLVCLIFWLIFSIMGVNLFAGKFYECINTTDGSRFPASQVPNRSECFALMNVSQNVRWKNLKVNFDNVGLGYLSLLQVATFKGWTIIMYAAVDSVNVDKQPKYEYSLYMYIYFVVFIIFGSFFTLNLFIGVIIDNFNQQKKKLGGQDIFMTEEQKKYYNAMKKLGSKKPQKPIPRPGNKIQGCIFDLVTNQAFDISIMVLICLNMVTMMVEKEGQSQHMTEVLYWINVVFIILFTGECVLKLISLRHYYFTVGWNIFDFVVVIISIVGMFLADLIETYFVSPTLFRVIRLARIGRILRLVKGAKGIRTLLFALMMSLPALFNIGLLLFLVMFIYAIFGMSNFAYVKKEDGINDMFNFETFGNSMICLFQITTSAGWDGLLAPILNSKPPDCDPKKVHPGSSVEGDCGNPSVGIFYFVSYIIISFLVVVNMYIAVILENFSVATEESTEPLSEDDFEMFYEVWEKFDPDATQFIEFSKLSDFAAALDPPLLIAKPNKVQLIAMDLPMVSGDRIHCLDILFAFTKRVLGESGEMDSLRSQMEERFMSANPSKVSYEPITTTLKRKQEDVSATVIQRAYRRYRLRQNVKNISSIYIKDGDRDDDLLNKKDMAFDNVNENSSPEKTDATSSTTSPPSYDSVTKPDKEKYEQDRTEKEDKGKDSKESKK
Target sequence in this assay (Q07699 whole entry partner, looked up): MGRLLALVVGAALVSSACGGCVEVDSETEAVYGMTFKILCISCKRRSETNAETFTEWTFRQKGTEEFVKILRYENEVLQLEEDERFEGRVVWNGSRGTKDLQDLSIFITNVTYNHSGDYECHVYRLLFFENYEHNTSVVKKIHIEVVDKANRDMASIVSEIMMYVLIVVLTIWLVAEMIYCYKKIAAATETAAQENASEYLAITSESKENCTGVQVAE

For assay [2], the target named is T1, hNav1.7. The experiment in a line: Patch voltage clamp electrophysiology (EP), Syncropatch 384PE, CHO cells stably expressing Nav1.7. It counts as cell-based. Conditions: holding potential −50 mV, 7.5 min compound incubation, read-out: EP_SP hNav1.7 EVO IC50. Summed up:
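Whole-cell automated patch clamp on CHO cells stably expressing human Nav1.7, holding at −50 mV; after a −10 mV prepulse and 20 ms recovery at −150 mV, test-pulse currents at −10 mV are measured. Inhibition taken after 7.5 min compound exposure; full block defined with TTX.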
Target sequence in this assay (Q15858 other isoform, or with tags, fused parts or gaps): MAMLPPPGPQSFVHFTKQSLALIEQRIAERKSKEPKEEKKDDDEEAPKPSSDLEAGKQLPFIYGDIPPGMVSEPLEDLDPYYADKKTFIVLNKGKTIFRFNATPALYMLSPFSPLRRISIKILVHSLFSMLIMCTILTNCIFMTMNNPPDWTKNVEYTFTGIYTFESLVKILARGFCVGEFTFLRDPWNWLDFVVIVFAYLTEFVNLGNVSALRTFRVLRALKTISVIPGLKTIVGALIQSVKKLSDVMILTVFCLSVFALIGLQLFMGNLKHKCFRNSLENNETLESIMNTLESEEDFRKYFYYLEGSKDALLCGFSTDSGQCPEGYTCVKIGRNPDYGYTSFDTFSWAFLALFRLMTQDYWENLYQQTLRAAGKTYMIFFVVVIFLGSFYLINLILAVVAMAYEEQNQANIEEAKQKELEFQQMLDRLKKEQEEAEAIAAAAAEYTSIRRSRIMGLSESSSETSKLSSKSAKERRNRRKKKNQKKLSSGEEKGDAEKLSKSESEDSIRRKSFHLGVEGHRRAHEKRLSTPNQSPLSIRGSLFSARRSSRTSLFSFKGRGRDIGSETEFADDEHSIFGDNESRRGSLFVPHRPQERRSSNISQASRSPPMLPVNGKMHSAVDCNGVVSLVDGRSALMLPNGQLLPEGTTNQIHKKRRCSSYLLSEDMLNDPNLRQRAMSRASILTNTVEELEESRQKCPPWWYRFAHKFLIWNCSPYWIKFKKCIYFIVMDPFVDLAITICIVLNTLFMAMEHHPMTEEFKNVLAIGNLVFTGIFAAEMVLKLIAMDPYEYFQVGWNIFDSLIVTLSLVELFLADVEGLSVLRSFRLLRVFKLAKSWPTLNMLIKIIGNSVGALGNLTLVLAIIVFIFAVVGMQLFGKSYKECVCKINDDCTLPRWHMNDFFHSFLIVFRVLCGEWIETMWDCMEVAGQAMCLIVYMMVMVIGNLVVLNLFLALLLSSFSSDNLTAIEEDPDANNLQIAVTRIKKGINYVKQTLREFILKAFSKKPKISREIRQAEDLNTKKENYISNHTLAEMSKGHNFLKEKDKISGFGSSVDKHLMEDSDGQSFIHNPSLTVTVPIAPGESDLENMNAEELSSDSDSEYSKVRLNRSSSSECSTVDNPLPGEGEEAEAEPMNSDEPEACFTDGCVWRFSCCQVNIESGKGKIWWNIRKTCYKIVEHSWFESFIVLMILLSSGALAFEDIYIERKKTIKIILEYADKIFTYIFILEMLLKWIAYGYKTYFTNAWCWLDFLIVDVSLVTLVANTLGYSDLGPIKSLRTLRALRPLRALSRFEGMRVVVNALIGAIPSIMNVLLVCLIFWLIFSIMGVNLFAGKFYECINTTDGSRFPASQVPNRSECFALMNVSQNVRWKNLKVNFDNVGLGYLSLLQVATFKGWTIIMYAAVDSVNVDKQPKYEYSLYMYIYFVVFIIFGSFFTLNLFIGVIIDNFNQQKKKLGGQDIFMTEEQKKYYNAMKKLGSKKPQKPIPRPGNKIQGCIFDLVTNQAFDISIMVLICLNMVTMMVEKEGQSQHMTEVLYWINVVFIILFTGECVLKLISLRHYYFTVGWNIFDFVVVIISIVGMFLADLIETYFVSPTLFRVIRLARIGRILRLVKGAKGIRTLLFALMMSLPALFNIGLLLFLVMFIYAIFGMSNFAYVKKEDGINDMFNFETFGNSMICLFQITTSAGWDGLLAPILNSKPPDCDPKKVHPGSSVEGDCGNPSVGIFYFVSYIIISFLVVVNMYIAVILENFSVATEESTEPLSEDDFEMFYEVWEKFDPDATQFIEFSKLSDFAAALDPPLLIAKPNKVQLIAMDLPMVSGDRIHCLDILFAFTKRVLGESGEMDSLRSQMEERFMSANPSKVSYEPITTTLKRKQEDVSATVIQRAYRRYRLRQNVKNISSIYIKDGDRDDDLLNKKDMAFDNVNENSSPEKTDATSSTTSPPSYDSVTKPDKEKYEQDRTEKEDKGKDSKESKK
For orientation: In patch-clamp work, channel activity is measured electrically.

For orientation: IC50 means the concentration needed to halve the response being measured.

Take “5-Chloro-6-(((1S,2S,4S)-4-(3-chlorophenyl)-2-(dimethylamino)cyclohexyl)oxy)-N-(pyrimidin-4-yl)pyridine-3-sulfonamide [Example 27]”: the IC50 turned out to be 7.12 nM in assay [1] and 0.574 nM in assay [2].
Taken in the same sequence, the figures for “6-(((1S,2S,4S)-4-(3-(1,1-difluoroethyl)phenyl)-2-(dimethylamino)cyclohexyl)oxy)-2-methyl-N-(pyrimidin-4-yl)pyridine-3-sulfonamide [Example 41]” were 1.9 nM and 1.95 nM.
For `CN(C)[C@H]1C[C@@H](c2cccc(C(F)(F)F)c2)CC[C@@H]1Nc1ccc(S(=O)(=O)Nc2ccncn2)cn1` (racemic) [Example 2, 6-(((1S,2S,4S)-2-(Dimethylamino)-4-(3-(trifluoromethyl)phenyl)cyclohexyl)amino)-N-(pyrimidin-4-yl)pyridine-3-sulfonamide], in that order: 9.17 nM and 0.427 nM.
On to `Cc1nc(O[C@H]2CC[C@H](c3cccc(C(F)(F)F)n3)C[C@@H]2N(C)C)ccc1S(=O)(=O)Nc1ccncn1` [Example 51, 6-(((1S,2S,4S)-2-(dimethylamino)-4-(6-(trifluoromethyl)pyridin-2-yl)cyclohexyl)oxy)-2-methyl-N-(pyrimidin-4-yl)pyridine-3-sulfonamide], for which the half-maximal inhibitory concentration (IC50) was found to be 0.985 nM in assay [1] and 4.59 nM in assay [2].
